Values quoted from earlier work, collected in PubChem BioAssay AID1259409 (Chemical Carcinogenesis Research Information System (CCRIS), 2018).

Test system: rodent chemically induced tumor inhibition, incidence and multiplicity
Test: CCRIS tumor inhibitor studies

## O=C(O[C@@H]1Cc2c(O)cc(O)cc2O[C@@H]1c1cc(O)c(O)c(O)c1)c1cc(O)c(O)c(O)c1
Carcinogen: 4-(METHYLNITROSAMINO)-1-(3-PYRIDYL)-1-BUTANONE, 64091-91-4, Dose [Inhibitor]: 0, 560 PPM IN DRINKING WATER FOR 13 WK BEGINNING 2 WK PRIOR TO CARCINOGEN TREATMENT (STUDY DURATION: 18 WK), Route [Inhibitor]: ORAL, Species: MOUSE, Strain/Sex: STRAIN-A/FEMALE, Target Tissue: Type of Lesion: LUNG: ADENOMA, Dose [Carcinogen]: 11.65 MG/KG 3/WK FOR 10 WK, Promoter: NONE USED
  tumour outcome (control, treated, inhibition, significance): 100%, 100%, 0%, not significant
Carcinogen: 4-NITROQUINOLINE-N-OXIDE (56-57-5), Dose [Inhibitor]: 0.05% IN DIET FOR 25 WKS (STUDY DURATION: 25 WKS), Route [Inhibitor]: DIET, Species: MOUSE, Strain/Sex: DDY/MALE (10,10)/(10,?), Target Tissue: Type of Lesion: LUNG, Dose [Carcinogen]: 10 MG/KG BW ONCE, Promoter: CACODYLIC ACID (75-60-5)
  tumour outcome (control, treated, inhibition, significance): 100%, 70%, 30%, not calculated
Carcinogen: 7,12-DIMETHYLBENZ[A]ANTHRACENE, 57-97-6, Dose [Inhibitor]: 0, 0.5% (81% EGCG) IN DIET OF RATS WITH TUMORS AT 13 WK POST CARCINOGEN DOSE (STUDY DURATION: 36 WK), Route [Inhibitor]: ORAL, Species: RAT, Strain/Sex: SPRAGUE-DAWLEY/FEMALE, Target Tissue: Type of Lesion: MAMMARY GLAND: CARCINOMA, Dose [Carcinogen]: 50 MG/KG BW ONCE, Promoter: NONE USED
  tumour outcome (control, treated, inhibition, significance): 14/14 (100%), 14/14 (100%), 0%, not significant
Carcinogen: 7,12-DIMETHYLBENZ[A]ANTHRACENE, 57-97-6, Dose [Inhibitor]: 0, 0.5% (81% EGCG) IN DIET OF RATS WITHOUT TUMORS AT 13 WK POST CARCINOGEN DOSE (STUDY DURATION: 36 WK), Route [Inhibitor]: ORAL, Species: RAT, Strain/Sex: SPRAGUE-DAWLEY/FEMALE, Target Tissue: Type of Lesion: MAMMARY GLAND: CARCINOMA, Dose [Carcinogen]: 50 MG/KG BW ONCE, Promoter: NONE USED
  tumour outcome (control, treated, inhibition, significance): 11/14 (79%), 12/14 (86%), -9%, not significant
Carcinogen: 7,12-DIMETHYLBENZ[A]ANTHRACENE, 57-97-6, Dose [Inhibitor]: 0, 0.5% POLYPHEN E (58.4% EGCG) IN DIET OF RATS WITH TUMORS AT 13 WK POST CARCINOGEN DOSE (STUDY DURATION: 36 WK), Route [Inhibitor]: ORAL, Species: RAT, Strain/Sex: SPRAGUE-DAWLEY/FEMALE, Target Tissue: Type of Lesion: MAMMARY GLAND: CARCINOMA, Dose [Carcinogen]: 50 MG/KG BW ONCE, Promoter: NONE USED
  tumour outcome (control, treated, inhibition, significance): 14/14 (100%), 14/14 (100%), 0%, not significant
Carcinogen: 7,12-DIMETHYLBENZ[A]ANTHRACENE, 57-97-6, Dose [Inhibitor]: 0, 5 UMOL IN 0.2 ML ACETONE 1/D FOR 7 D PRIOR TO CARCINOGEN DOSE (STUDY DURATION: 16 WK), Route [Inhibitor]: DERMAL, Species: MOUSE, Strain/Sex: SENCAR/FEMALE, Target Tissue: Type of Lesion: SKIN: TUMOR, Dose [Carcinogen]: 10 NMOL IN 0.2 ML ACETONE ONCE, Promoter: 12-O-TETRADECANOYLPHORBOL-13-ACETATE, 16561-29-8
  tumour outcome (control, treated, inhibition, significance): 100%, 100%, 0%, not significant
Carcinogen: N-ETHYL-N'-NITRO-N-NITROSGUANIDINE, 4245-77-6, Dose [Inhibitor]: 0, 0.005% IN DIET FOR 12 WK BEGINNING POST CARCINOGEN TREATMENT (STUDY DURATION: 16 WK), Route [Inhibitor]: ORAL, Species: MOUSE, Strain/Sex: C57BL/MALE, Target Tissue: Type of Lesion: DUODENUM: TUMOR, Dose [Carcinogen]: 100 MG/L IN DRINKING WATER FOR 4 WK, Promoter: NONE USED
  tumour outcome (control, treated, inhibition, significance): 63%, 20%, 68%, p<0.001
Carcinogen: N-ETHYL-N'-NITRO-N-NITROSOGUANIDINE, 4245-77-6, Dose [Inhibitor]: 0, 0.005% IN DIET FOR 12 WK BEGINNING POST CARCINOGEN TREATMENT (STUDY DURATION: 16 WK), Route [Inhibitor]: ORAL, Species: MOUSE, Strain/Sex: C57BL/MALE, Target Tissue: Type of Lesion: DUODENUM: TUMOR, Dose [Carcinogen]: 100 MG/L IN DRINKING WATER FOR 4 WK, Promoter: NONE USED
  tumour outcome (control, treated, inhibition, significance): 63%, 20%, 68%, p<0.001
Carcinogen: N-ETHYL-N'-NITRO-N-NITROSOGUANIDINE, 4245-77-6, Dose [Inhibitor]: 0.005% (0.15 MG/MOUSE/D) IN DRINKING WATER FOR 12 WK POST CARCINOGEN DOSE (STUDY DURATION: 16 WK), Route [Inhibitor]: ORAL, Species: MOUSE, Strain/Sex: C57BL/MALE, Target Tissue: Type of Lesion: DUODENUM: TUMOR, Dose [Carcinogen]: 100 MG/L DRINKING WATER FOR 4 WK, Promoter: NONE USED
  tumour outcome (control, treated, inhibition, significance): 10/16 (63%), 3/15 (20%), 68%, p<0.001
Carcinogen: N-METHYL-N'-NITRO-N-NITROSOGUANIDINE, 70-25-7, Dose [Inhibitor]: 0, 0.05% IN DIET FOR 16 WK BEGINNING POST CARCINOGEN TREATMENT (STUDY DURATION: 44 WK), Route [Inhibitor]: ORAL, Species: RAT, Strain/Sex: WISTAR/MALE, Target Tissue: Type of Lesion: STOMACH: TUMOR, Dose [Carcinogen]: 80 MG/L IN DRINKING WATER FOR 28 WK, Promoter: NONE USED
  tumour outcome (control, treated, inhibition, significance): 62%, 31%, 50%, p<0.05
Carcinogen: N-METHYL-N'-NITRO-N-NITROSOGUANIDINE, 70-25-7, Dose [Inhibitor]: 0, 0.05% IN DRINKING WATER FOR 15 WK (STUDY DURATION: 44 WK), Route [Inhibitor]: ORAL, Species: RAT, Strain/Sex: WISTAR/MALE, Target Tissue: Type of Lesion: GLANDULAR STOMACH: TUMOR, Dose [Carcinogen]: 80 MG/L IN DRINKING WATER FOR 28 WK, Promoter: NONE USED
  tumour outcome (control, treated, inhibition, significance): 21/34 (62%), 11/35 (31%), 50%, p<0.05
Carcinogen: N-METHYL-N'-NITRO-N-NITROSOGUANIDINE, 70-25-7, Dose [Inhibitor]: 0, 0.05% IN DRINKING WATER FOR 15 WK BEGINNING POST CARCINOGEN TREATMENT (STUDY DURATION: 44 WK), Route [Inhibitor]: ORAL, Species: RAT, Strain/Sex: WISTAR/MALE, Target Tissue: Type of Lesion: GLANDULAR STOMACH: TUMOR, Dose [Carcinogen]: 80 MG/L IN DRINKING WATER FOR 28 WK, Promoter: NONE USED
  tumour outcome (control, treated, inhibition, significance): 21/34 (62%), 11/35 (31%), 50%, p<0.05
Carcinogen: NONE USED, Dose [Inhibitor]: 0, 0.05% IN DRINKING WATER AD LIBITUM FOR 58 WK (STUDY DURATION: 65 WK), Route [Inhibitor]: ORAL, Species: MOUSE, Strain/Sex: C3H/HENCRJ/MALE, Target Tissue: Type of Lesion: LIVER: HEPATOMA, Promoter: NONE USED
  tumour outcome (control, treated, inhibition, significance): 15/18 (83%), 14/25 (56%), 33%, p<0.05
Carcinogen: NONE USED, Dose [Inhibitor]: 0, 0.1% IN DRINKING WATER AD LIBITUM FOR 58 WK (STUDY DURATION: 65 WK), Route [Inhibitor]: ORAL, Species: MOUSE, Strain/Sex: C3H/HENCRJ/MALE, Target Tissue: Type of Lesion: LIVER: HEPATOMA, Promoter: NONE USED
  tumour outcome (control, treated, inhibition, significance): 15/18 (83%), 12/23 (52%), 37%, p<0.05

## CC(C)[C@@H]1CC[C@@H](C)C[C@H]1O
Carcinogen: AZOXYMETHANE, 25843-45-2, Dose [Inhibitor]: 0, 5 MG/G IN DIET FOR 22 WK BEGINNING 3 D POST LAST CARCINOGEN DOSE (STUDY DURATION: 25 WK), Route [Inhibitor]: ORAL, Species: RAT, Strain/Sex: F344/MALE, Target Tissue: Type of Lesion: DUODENUM: ADENOCARCINOMA, Dose [Carcinogen]: 15 MG/KG BW 2/WK FOR 3 WK, Promoter: NONE USED
  tumour outcome (control, treated, inhibition, significance): 50%, 42%, 16%, not significant
Carcinogen: AZOXYMETHANE, 25843-45-2, Dose [Inhibitor]: 0, 5 MG/G IN DIET FOR 22 WK BEGINNING 3 D POST LAST CARCINOGEN DOSE (STUDY DURATION: 25 WK), Route [Inhibitor]: ORAL, Species: RAT, Strain/Sex: F344/MALE, Target Tissue: Type of Lesion: LARGE BOWEL: ADENOMATOUS POLYP, Dose [Carcinogen]: 15 MG/KG BW 2/WK FOR 3 WK, Promoter: NONE USED
  tumour outcome (control, treated, inhibition, significance): 82%, 88%, -7%, not significant

## O=c1[nH]c(=O)n([C@H]2C[C@H](O)[C@@H](CO)O2)cc1Br
Carcinogen: DIETHYLNITROSAMINE, 55-18-5, Dose [Inhibitor]: 0, 100 MG/KG INJECTED 4, 24, AND 48 HR AFTER EACH CARCINOGEN EXPOSURE (STUDY DURATION: 6 MO), Route [Inhibitor]: INTRAPERITONEAL, Species: RAT, Strain/Sex: BD6/MALE, Target Tissue: Type of Lesion: ESOPHAGUS: TUMOR, Dose [Carcinogen]: 80 MG/KG 1 WK FOR 7 WK
  tumour outcome (control, treated, inhibition, significance): 10/40 (25%), 11/35 (31%), -24%, not calculated
Carcinogen: DIETHYLNITROSAMINE, 55-18-5, Dose [Inhibitor]: 0, 100 MG/KG INJECTED 4, 24, AND 48 HR AFTER EACH CARCINOGEN EXPOSURE (STUDY DURATION: 6 MO), Route [Inhibitor]: INTRAPERITONEAL, Species: RAT, Strain/Sex: BD6/MALE, Target Tissue: Type of Lesion: LIVER: TUMOR, Dose [Carcinogen]: 80 MG/KG 1/WK FOR 7 WK
  tumour outcome (control, treated, inhibition, significance): 29/40 (73%), 20/35 (57%), 22%, not calculated
